These are literature values, as cited in paper PMC4414144, “Plasmin releases the anti-tumor peptide from the NC1 domain of collagen XIX” (Oncotarget, 2015).

One data set deals with tumor cells. The following applies: in vitro; ref [25]; cited from earlier work. From the text:
(§1) Type XIX collagen is one of the minor basement membrane-associated collagens. It was discovered in 1992, isolated from rhabdomyosarcoma cell lines and named collagen Y [16]. This discovery was completed in 1993 by Myers et al who gave it the name of RH collagen. It is a 400 kDa homotrimer, composed by the association of three α1(XIX) chains. Each chain comprises 1142 residues, including six non-collagenous domains (NC1-NC6) separated by five collagenous domains (Col1-Col5). This collagen presents high structural homology with other types of collagens IX, XII, XIV, X ...

Data set [1] relates to experimental murine melanoma. The following applies: experimental murine melanoma model; ref [26]; cited from earlier work.
From the text: as §1

A further data set concerns tumor angiogenesis. The note with it: in vitro and in vivo; ref [26]; cited from earlier work.
From the text: as §1

With “NPEDCLYPVSHAHQRTGGN [NC1(XIX), C-terminal NC1(XIX) domain (…), 19 amino acids]”, in the data set with tumor cells, the “Tumor cell migration and invasion” value is “inhibited the migration and invasion capacities of tumor cells in vitro”. Also, the “Inhibition of in vivo tumor growth” value in data set [1] was “strong inhibition”. Besides, the Tumor angiogenesis result in the data set on tumor angiogenesis is “inhibited tumor angiogenesis in vitro and in vivo”.
